From patent publication US20180284095A1, “BIOMARKERS ASSOCIATED WITH LSD1 INHIBITORS AND USES THEREOF” (Oryzon Genomics, S.A., priority 2015, published 2018)

Key:
TUBB2C = assay: Microarray gene expression in brain, spleen and liver of Hsd:Athymic Nude-Foxn1nu mice (Example 7), housekeeping gene; assay type: in vivo, mouse
Procedure: (§1) Total RNA was extracted from samples using the RNeasy extraction kit (Qiagen). The quality and concentration of the RNA was analyzed using the Agilent 2100 bioanalyzer and NanoDrop™ ND-1000 (Thermo Scientific). Samples with RNA integrity number (RIN)<6.0 were discarded. Total RNA (0.5 μg) amplification and labelling with Cy3 or Cy5 was carried out using the Eberwein mRNA amplification procedure (Van Gelder et al, Proc Natl Acad Sci USA 1990, 87:1663-1667) employing the MessageAmp™ aRNA amplification kit from Ambion (Applied Biosystems) following the manufacturer's instructions with minor modifications. As hybridization controls, plant mRNAs were transcribed from a plasmid containing the Zea mays Xet (xyloglucan endo-transglycosylase) cDNA and from a plasmid containing the Zea mays Zmmyb42 cDNA, independently prepared Cy3 and Cy5 labelled aRNA from these two RNAs using the Eberwein mRNA amplification procedure (as disclosed in Cerdà et al, Gen Comp Endocrinol 2008, 156:470-481).
(§2) The Cy3- and Cy5-labelled cRNAs and spikes were combined and hybridized to the microarray described in Example 2.6 for 17 h at 60° C. using Agilent's gaskets G2534-60002, G2534A hybridization chambers and DNA Hybridization Oven G2545A, according to the manufacturer's instructions. More specifically, equal amounts of Cy3 and Cy5 labeled Xet aRNA as well as equal amounts of Cy3 and Cy5 labeled Zmmyb42 aRNA were spiked into each mixture hybridized to the array. Arrays were washed and raw data were obtained using Agilent's DNA Microarray Scanner G2505B and Feature Extraction software (v10.1). The raw fluorescence intensity data were processed using applicant's proprietary software, and consists in the following operations:
(§3) Data normalization was carried out by an improved version of the nonlinear Q-splines normalization method (Workman et al., Genome Biol 2002, 3(9):research0048.1-0048.16). Normalization results were presented graphically as MA plots, as first described by Dudoit et al (Dudoit et al, Statistica Sinica, 2002, 12:111-139). Each point corresponds to a probe of the DNA array. M values (vertical axis) are the log-differential expression ratios. A values (horizontal axis) are the log-intensities of the spots. M and A are calculated from the Cy5 and Cy3 intensity values as of each spot. The DNA Array data is normalized using an improved version of non-linear Q-Splines normalization described by Workman et al., Genome Biol 2002, 3(9):research0048.1-0048.16. This process is useful to correct the deviation of the M values from the statistical assumption that most of the spots have M=0 in MA plots. The method allows the adjustment of all M values to form a cloud centered at M=0 in all intensity ranges. The data used to calculate the normalization fitting curve is the totality of the raw measurement dataset, excluding the signals for the probes for the spiked-in plant RNA controls and negative controls. In order to be able to normalize properly the data among all the experiments, the probe-set must include an important group of genes that should have no change (M=0) in the experiment. The normalization function is then applied to all the data, including controls.
(§4) Normalized and log-transformed data were used to calculate log 2 (sample/control) and Fold Change (FC) values. No background subtraction was applied to the signal intensity values during data processing, permitting robust selection of differentially expressed genes with low expression levels at the cost of potential sub-estimation of change when intensity levels are close to the array background level.
(§5) Powered Compound 3, 4 or 5 was dissolved in a 20% solution of 2-hydroxypropyl-R-cyclodextrin in water at the appropriate concentrations, vortexed and placed in an ultrasonic bath for 5 minutes.
(§6) Hsd:Athymic Nude-Foxn1nu mice were maintained in air- and temperature-controlled cages with regular supply of water and food. A maximum of 6 mice/cage were raised. […]

TUBB3 = assay: as above; assay type: in vivo, mouse
Procedure: as §1, §2, §3, §4, §5, §6

SMILES: NC(=O)CN[C@H]1C[C@@H]1c1ccc(OCc2ccccc2)cc1 (racemic) [Compound 3, 2-(((trans)-2-(4-(benzyloxy)phenyl)cyclopropyl)amino)acetamide]
- Hybridization signal sample_Cy5 (TUBB2C; BRAIN, 5 mg/kg): 5903.12
- log2 (sample/control) (TUBB2C; BRAIN, 5 mg/kg vs VEH): 0.09115
- Hybridization signal sample_Cy5 (TUBB2C; BRAIN, 10 mg/kg): 6228.65
- log2 (sample/control) (TUBB2C; BRAIN, 10 mg/kg vs VEH): −0.008955
- Hybridization signal sample_Cy5 (TUBB2C; BRAIN, 20 mg/kg): 6935.27
- log2 (sample/control) (TUBB2C; BRAIN, 20 mg/kg vs VEH): 0.07289
- Hybridization signal sample_Cy5 (TUBB2C; BRAIN, 40 mg/kg): 7405.34
- log2 (sample/control) (TUBB2C; BRAIN, 40 mg/kg vs VEH): 0.06328
- Hybridization signal sample_Cy5 (TUBB2C; LIVER, 5 mg/kg): 2676.03
- log2 (sample/control) (TUBB2C; LIVER, 5 mg/kg vs VEH): −0.1194
- Hybridization signal sample_Cy5 (TUBB2C; LIVER, 10 mg/kg): 2301.43
- log2 (sample/control) (TUBB2C; LIVER, 10 mg/kg vs VEH): −0.2687
- Hybridization signal sample_Cy5 (TUBB2C; LIVER, 20 mg/kg): 2059.18
- log2 (sample/control) (TUBB2C; LIVER, 20 mg/kg vs VEH): −0.578
- Hybridization signal sample_Cy5 (TUBB2C; LIVER, 40 mg/kg): 1551.2
- log2 (sample/control) (TUBB2C; LIVER, 40 mg/kg vs VEH): −0.9728
- Hybridization signal sample_Cy5 (TUBB2C; SPLEEN, 5 mg/kg): 6245.92
- log2 (sample/control) (TUBB2C; SPLEEN, 5 mg/kg vs VEH): −0.05272
- Hybridization signal sample_Cy5 (TUBB2C; SPLEEN, 10 mg/kg): 4019.89
- log2 (sample/control) (TUBB2C; SPLEEN, 10 mg/kg vs VEH): −0.4863
- Hybridization signal sample_Cy5 (TUBB2C; SPLEEN, 20 mg/kg): 4597.76
- log2 (sample/control) (TUBB2C; SPLEEN, 20 mg/kg vs VEH): −0.4097
- Hybridization signal sample_Cy5 (TUBB2C; SPLEEN, 40 mg/kg): 8986.8
- log2 (sample/control) (TUBB2C; SPLEEN, 40 mg/kg vs VEH): −0.9476
- Hybridization signal sample_Cy5 (TUBB3; BRAIN, TUBB3, 5 mg/kg): 2574.04
- log2 (sample/control) (TUBB3; BRAIN, TUBB3, 5 mg/kg vs VEH): −0.223
- Hybridization signal sample_Cy5 (TUBB3; BRAIN, TUBB3, 10 mg/kg): 3248.86
- log2 (sample/control) (TUBB3; BRAIN, TUBB3, 10 mg/kg vs VEH): −0.06283
- Hybridization signal sample_Cy5 (TUBB3; BRAIN, TUBB3, 20 mg/kg): 3078.53
- log2 (sample/control) (TUBB3; BRAIN, TUBB3, 20 mg/kg vs VEH): −0.0238
- Hybridization signal sample_Cy5 (TUBB3; BRAIN, TUBB3, 40 mg/kg): 3573.76
- log2 (sample/control) (TUBB3; BRAIN, TUBB3, 40 mg/kg vs VEH): 0.02054
- Hybridization signal sample_Cy5 (TUBB3; LIVER, TUBB3, 5 mg/kg): 64.7691
- log2 (sample/control) (TUBB3; LIVER, TUBB3, 5 mg/kg vs VEH): −0.09742
- Hybridization signal sample_Cy5 (TUBB3; LIVER, TUBB3, 10 mg/kg): 68.7068
- log2 (sample/control) (TUBB3; LIVER, TUBB3, 10 mg/kg vs VEH): 0.02345
- Hybridization signal sample_Cy5 (TUBB3; LIVER, TUBB3, 20 mg/kg): 48.4567
- log2 (sample/control) (TUBB3; LIVER, TUBB3, 20 mg/kg vs VEH): −0.04225
- Hybridization signal sample_Cy5 (TUBB3; LIVER, TUBB3, 40 mg/kg): 46.9101
- log2 (sample/control) (TUBB3; LIVER, TUBB3, 40 mg/kg vs VEH): 0.01927
- Hybridization signal sample_Cy5 (TUBB3; SPLEEN, TUBB3, 5 mg/kg): 58.6845
- log2 (sample/control) (TUBB3; SPLEEN, TUBB3, 5 mg/kg vs VEH): −0.02944
- Hybridization signal sample_Cy5 (TUBB3; SPLEEN, TUBB3, 10 mg/kg): 52.6685
- log2 (sample/control) (TUBB3; SPLEEN, TUBB3, 10 mg/kg vs VEH): −0.02259
- Hybridization signal sample_Cy5 (TUBB3; SPLEEN, TUBB3, 20 mg/kg): 62.5361
- log2 (sample/control) (TUBB3; SPLEEN, TUBB3, 20 mg/kg vs VEH): −0.1183
- Hybridization signal sample_Cy5 (TUBB3; SPLEEN, TUBB3, 40 mg/kg): 88.3418
- log2 (sample/control) (TUBB3; SPLEEN, TUBB3, 40 mg/kg vs VEH): 0.169

SMILES: CN1CCN(C(=O)CN[C@H]2C[C@@H]2c2ccc(OCc3ccccc3)cc2)CC1 (racemic) [Compound 4, 2-(((trans)-2-(4-(benzyloxy)phenyl)cyclopropyl)amino)-1-(4-methylpiperazin-1-yl)ethan-1-one]
- Hybridization signal sample_Cy5 (TUBB2C; BRAIN, 1 mg/kg): 10016.7
- log2 (sample/control) (TUBB2C; BRAIN, 1 mg/kg vs VEH): −0.04912
- Hybridization signal sample_Cy5 (TUBB2C; BRAIN, 3 mg/kg): 9877.42
- log2 (sample/control) (TUBB2C; BRAIN, 3 mg/kg vs VEH): −0.06585
- Hybridization signal sample_Cy5 (TUBB2C; BRAIN, 10 mg/kg): 11991.7
- log2 (sample/control) (TUBB2C; BRAIN, 10 mg/kg vs VEH): −0.04291
- Hybridization signal sample_Cy5 (TUBB2C; LIVER, 1 mg/kg): 4327.04
- log2 (sample/control) (TUBB2C; LIVER, 1 mg/kg vs VEH): 0.2971
- Hybridization signal sample_Cy5 (TUBB2C; LIVER, 3 mg/kg): 3201.33
- log2 (sample/control) (TUBB2C; LIVER, 3 mg/kg vs VEH): 0.1069
- Hybridization signal sample_Cy5 (TUBB2C; LIVER, 10 mg/kg): 3143.68
- log2 (sample/control) (TUBB2C; LIVER, 10 mg/kg vs VEH): 0.3292
- Hybridization signal sample_Cy5 (TUBB2C; SPLEEN, 1 mg/kg): 13305.5
- log2 (sample/control) (TUBB2C; SPLEEN, 1 mg/kg vs VEH): −0.3124
- Hybridization signal sample_Cy5 (TUBB2C; SPLEEN, 3 mg/kg): 11689.6
- log2 (sample/control) (TUBB2C; SPLEEN, 3 mg/kg vs VEH): −0.4339
- Hybridization signal sample_Cy5 (TUBB2C; SPLEEN, 10 mg/kg): 6541.2
- log2 (sample/control) (TUBB2C; SPLEEN, 10 mg/kg vs VEH): −1.316
- Hybridization signal sample_Cy5 (TUBB3; BRAIN, TUBB3, 1 mg/kg): 4992.04
- log2 (sample/control) (TUBB3; BRAIN, TUBB3, 1 mg/kg vs VEH): −0.03825
- Hybridization signal sample_Cy5 (TUBB3; BRAIN, TUBB3, 3 mg/kg): 5129.04
- log2 (sample/control) (TUBB3; BRAIN, TUBB3, 3 mg/kg vs VEH): 0.07852
- Hybridization signal sample_Cy5 (TUBB3; BRAIN, TUBB3, 10 mg/kg): 5941.88
- log2 (sample/control) (TUBB3; BRAIN, TUBB3, 10 mg/kg vs VEH): −0.1778
- Hybridization signal sample_Cy5 (TUBB3; LIVER, TUBB3, 1 mg/kg): 91.4818
- log2 (sample/control) (TUBB3; LIVER, TUBB3, 1 mg/kg vs VEH): −0.409
- Hybridization signal sample_Cy5 (TUBB3; LIVER, TUBB3, 3 mg/kg): 66.7291
- log2 (sample/control) (TUBB3; LIVER, TUBB3, 3 mg/kg vs VEH): −0.2432
- Hybridization signal sample_Cy5 (TUBB3; LIVER, TUBB3, 10 mg/kg): 103.99
- log2 (sample/control) (TUBB3; LIVER, TUBB3, 10 mg/kg vs VEH): 0.6811
- Hybridization signal sample_Cy5 (TUBB3; SPLEEN, TUBB3, 1 mg/kg): 76.0246
- log2 (sample/control) (TUBB3; SPLEEN, TUBB3, 1 mg/kg vs VEH): 0.2314
- Hybridization signal sample_Cy5 (TUBB3; SPLEEN, TUBB3, 3 mg/kg): 114.188
- log2 (sample/control) (TUBB3; SPLEEN, TUBB3, 3 mg/kg vs VEH): 0.3352
- Hybridization signal sample_Cy5 (TUBB3; SPLEEN, TUBB3, 10 mg/kg): 154.437
- log2 (sample/control) (TUBB3; SPLEEN, TUBB3, 10 mg/kg vs VEH): 0.9169
